Values after ≈ are worked out from the molar mass of the structure shown. Read-outs that look alike come from different tables or passages of the source.
How the values were obtained:
[1] = test system: Paeceilomyces variotii; assay: MIC, CLSI M38-A2 broth dilution (Table 1); assay type: cell-based; conditions: isolate QC
[2] = test system: Aspergillus fumigatus; assay: Aspergillus fumigatus mycelia growth dose-response (MIC by linear regression); assay type: cell-based; conditions: for MIC: Aspergillus fumigatus, FIG. 2A dose-response, linear regression
[3] = test system: Pneumocystis carinii; assay: In vitro ATP content of Pneumocystis (luciferin-luciferase assay); conditions: for IC50: Pneumocystis carinii, read-out: IC50 (reduction in ATP)
[4] = test system: Pneumocystis murina; assay: as above; conditions: for IC50: Pneumocystis murina, read-out: IC50 (reduction in ATP)
[5] = test system: Coccidioides sp.; assay: microbe, parasite or virus in culture; assay type: cell-based
[6] = test system: Scedosporium sp.; assay: MIC (Table 5)
[7] = test system: Apophysomyces; assay: MIC (Table 5)
[8] = test system: Trichophyton rubrum; assay: Trichophyton rubrum mycelia growth dose-response (MIC by linear regression); assay type: cell-based; conditions: for MIC: Trichophyton rubrum, FIG. 3 dose-response, linear regression
[9] = test system: C. glabrata; assay: MIC against Candida species (Table 4); conditions: Nakaseomyces glabratus
[10] = read-out: MIC, concentration resulting in 50% inhibition of mycelia growth
[11] = read-out: MIC, concentration resulting in 90% inhibition of mycelia growth

NCC(=O)Nc1ccc(-n2nc(C(F)(F)F)cc2-c2ccc3c(ccc4ccccc43)c2)cc1 [AR-12, 2-amino-N-(4-(5-(phenanthren-2-yl)-3-(trifluoromethyl)-1H-pyrazol-1-yl)phenyl)acetamide]
MIC 50% [1]: 4 gg/m1
MIC 100% [1]: 4 gg/m1
MIC [2, 10]: 3.1 µM (≈ 1.43 µg/mL)
MIC [2, 11]: 8.6 µM (≈ 3.96 µg/mL)
concentration that effectively prevents growth ([2]; stated for all three fungi): 8 to 40 µM
IC50 ([3]; 24 h): 41.3 µg/mL (≈ 89.7 µM)
IC50 ([3]; 48 h): 18.3 µg/mL (≈ 39.8 µM)
IC50 ([3]; 72 h): 4.82 µg/mL (≈ 10.5 µM)
Pm % Reduction in ATP/Vehicle Control ([3]; Table 2, 1 μg/ml, 24 hours): 0%
Pm % Reduction in ATP/Vehicle Control ([3]; Table 2, 1 μg/ml, 48 hours): 1.76%
Pm % Reduction in ATP/Vehicle Control ([3]; Table 2, 1 μg/ml, 72 hours): 0.49%
Pm % Reduction in ATP/Vehicle Control ([3]; Table 2, 10 μg/ml, 24 hours): 0%
Pm % Reduction in ATP/Vehicle Control ([3]; Table 2, 10 μg/ml, 48 hours): 16.68%
Pm % Reduction in ATP/Vehicle Control ([3]; Table 2, 10 μg/ml, 72 hours): 59.81%
Pm % Reduction in ATP/Vehicle Control ([3]; Table 2, 100 μg/ml, 24 hours): 97.31%
Pm % Reduction in ATP/Vehicle Control ([3]; Table 2, 100 μg/ml, 48 hours): 97.2%
Pm % Reduction in ATP/Vehicle Control ([3]; Table 2, 100 μg/ml, 72 hours): 99.04%
IC50 ([4]; 24 h): 9.69 µg/mL (≈ 21 µM)
IC50 ([4]; 48 h): 2.77 µg/mL (≈ 6.02 µM)
IC50 ([4]; 72 h): 1.78 µg/mL (≈ 3.87 µM)
Pm % Reduction in ATP/Vehicle Control ([4]; Table 3, 1 μg/ml, 24 hours): 3.51%
Pm % Reduction in ATP/Vehicle Control ([4]; Table 3, 1 μg/ml, 48 hours): 5.76%
Pm % Reduction in ATP/Vehicle Control ([4]; Table 3, 1 μg/ml, 72 hours): 15.48%
Pm % Reduction in ATP/Vehicle Control ([4]; Table 3, 10 μg/ml, 24 hours): 54.02%
Pm % Reduction in ATP/Vehicle Control ([4]; Table 3, 10 μg/ml, 48 hours): 85.38%
Pm % Reduction in ATP/Vehicle Control ([4]; Table 3, 10 μg/ml, 72 hours): 94.23%
Pm % Reduction in ATP/Vehicle Control ([4]; Table 3, 100 μg/ml, 24 hours): 83.6%
Pm % Reduction in ATP/Vehicle Control ([4]; Table 3, 100 μg/ml, 48 hours): 97.76%
Pm % Reduction in ATP/Vehicle Control ([4]; Table 3, 100 μg/ml, 72 hours): 98.09%
MIC50 ([5]; Coccidioides): 2 µg/mL (≈ 4.34 µM)
MIC ([5]; Coccidioides, read-out: MIC 100%, isolate COCCI-1, 72/192 hrs): 4 µg/mL (≈ 8.69 µM)
MIC ([5]; Coccidioides, read-out: MIC 100%, isolate COCCI-2, 72/192 hrs): 8 µg/mL (≈ 17.4 µM)
MIC ([5]; Coccidioides, read-out: MIC 100%, isolate COCCI-3, 72/192 hrs): 4 µg/mL (≈ 8.69 µM)
MIC 50% ([5]; isolate COCCI-1, 72/192 hrs): 2 µg/mL (≈ 4.34 µM)
MIC 50% ([5]; isolate COCCI-3, 72/192 hrs): 2 µg/mL (≈ 4.34 µM)
MIC50 ([6]; 24 h, isolate S-2, 24 hrs): 2 µg/mL (≈ 4.34 µM)
MIC ([6]; 24 h, read-out: MIC 100%, isolate S-2, 24 hrs): 2 µg/mL (≈ 4.34 µM)
MIC50 ([6]; isolate S-1, 48/72 hrs): 2 µg/mL (≈ 4.34 µM)
MIC50 ([6]; isolate S-2, 48/72 hrs): 4 µg/mL (≈ 8.69 µM)
MIC ([6]; read-out: MIC 100%, isolate S-1, 48/72 hrs): 4 µg/mL (≈ 8.69 µM)
MIC ([6]; read-out: MIC 100%, isolate S-2, 48/72 hrs): 4 µg/mL (≈ 8.69 µM)
MIC50 [7]: 4 µg/mL (≈ 8.69 µM)
MIC50 ([7]; 24 h): 2 µg/mL (≈ 4.34 µM)
MIC ([7]; 24 h, read-out: MIC 100%, isolate AE-1, 24 hrs): 4 µg/mL (≈ 8.69 µM)
MIC ([7]; 24 h, read-out: MIC 100%, isolate AE-2, 24 hrs): 4 µg/mL (≈ 8.69 µM)
MIC 50% ([7]; isolate AE-2, 48/72 hrs): 4 µg/mL (≈ 8.69 µM)
MIC 50% ([7]; isolate AE-2, 24 hrs): 2 µg/mL (≈ 4.34 µM)
MIC ([7]; read-out: MIC 100%, isolate AE-1, 48/72 hrs): 4 µg/mL (≈ 8.69 µM)
MIC ([7]; read-out: MIC 100%, isolate AE-2, 48/72 hrs): 4 µg/mL (≈ 8.69 µM)
MIC [8, 10]: 4.5 µM (≈ 2.07 µg/mL)
MIC [8, 11]: 11.3 µM (≈ 5.2 µg/mL)
concentration that effectively prevents growth ([8]; stated for all three fungi): 8 to 40 µM
MIC50 ([9]; 24 h, isolate CG-1, 24 hrs): 4 µg/mL (≈ 8.69 µM)
MIC50 ([9]; 24 h, isolate CG-2, 24 hrs): 4 µg/mL (≈ 8.69 µM)
MIC50 ([9]; 24 h, isolate CG-3, 24 hrs): 4 µg/mL (≈ 8.69 µM)
MIC50 ([9]; 24 h, isolate CG-4, 24 hrs): 4 µg/mL (≈ 8.69 µM)
MIC50 ([9]; 24 h, isolate CG-5, 24 hrs): 4 µg/mL (≈ 8.69 µM)
MIC50 ([9]; 24 h, isolate CG-6, 24 hrs): 4 µg/mL (≈ 8.69 µM)
MIC50 ([9]; 24 h, isolate CG-7, 24 hrs): 2 µg/mL (≈ 4.34 µM)
MIC50 ([9]; 24 h, isolate CG-8, 24 hrs): 4 µg/mL (≈ 8.69 µM)
MIC50 ([9]; 24 h, isolate CG-9, 24 hrs): 2 µg/mL (≈ 4.34 µM)
MIC50 ([9]; 24 h, isolate CG-10, 24 hrs): 2 µg/mL (≈ 4.34 µM)
MIC ([9]; 24 h, read-out: MIC 100%): 4 µg/mL (≈ 8.69 µM)
MIC50 ([9]; 48 h, isolate CG-1, 48 hrs): 4 µg/mL (≈ 8.69 µM)
MIC50 ([9]; 48 h, isolate CG-2, 48 hrs): 4 µg/mL (≈ 8.69 µM)
